Several values for one entry are separate records, joined by “and”; a condition that tells them apart may be missing. Equal entries are not always repeated.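 The compound was tested at five concentrations on cells cultured in 96-well plates, with a 48-hour exposure period. GI50 = concentration required for 50% inhibition of growth. At the TGI there is no net growth.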

Holding throughout (experiment): growth of human tumour cells (NCI), 48 h
The subject of experiment [1] is NCI/ADR-RES ovarian.
The subject of experiment [2] is SNB-78 CNS.
Experiment [3] concerns DLD-1 colon.
The subject of experiment [4] is M19-MEL melanoma.
The subject of experiment [5] is DMS 273 small cell lung.
Experiment [6] relates to HOP-18 NSCLC.
For experiment [7], the system named is MDA-N.
Experiment [8] has as its system XF 498 CNS.

For `C=C1C(=O)O[C@H]2[C@H]1CC/C(COC(=O)NCCCCCCCCNC(=O)OC/C1=C/CC[C@@]3(C)O[C@H]3[C@H]3OC(=O)C(=C)[C@@H]3CC1)=C\CC[C@@]1(C)O[C@@H]21`, in experiment [1], the GI50 is 3.91 µM and the TGI was 18.7 µM.
Turning to `Cc1cc(=O)oc2cc(OC/C=C3\CCC(=O)O3)ccc12`, in experiment [1], the GI50 is 23 µM and the TGI came to 82.9 µM.
`COc1ccc2c(c1)C(=O)c1c-2c(Nc2cccc(C(C)=O)c2)nc2ccccc12`: in experiment [1], the GI50 is 8.66 µM and the TGI was 28.3 µM.
For `Cc1ccc(S(=O)(=O)Nc2ccc(-c3cc(-c4cccc(F)c4)c(C#N)c(N)n3)cc2)cc1`, in that order: 2.92 µM and 10.8 µM.
`Cc1ccc(NC(=O)OCC(COc2ccc(Cl)cc2Cl)OC(=O)Nc2ccc(C)cc2)cc1` (configuration not stated): the TGI in experiment [2], in experiment [3], in experiment [4], in experiment [5] and in experiment [6] was greater than 100 µM each time.
As for `COc1ccc(OC)c(/C=C/c2nc(SCc3ccccc3)n(-c3ccc(Cl)cc3)n2)c1`, in experiment [1], the GI50 was 2.25 µM and the TGI is greater than 100 µM.
For `COCCn1cc(-c2csc(-c3c[nH]c4ccc(Br)cc34)n2)c2cccnc21` the same measures were 2.86 µM and greater than 100 µM.
Take `COc1cccc2c1C(=O)c1c(O)c3c(c(O)c1C2=O)CC(O)(C(=O)CO)CC3OC1CC(N)C(O)C(C)O1` (configuration not stated): in experiment [7], the GI50 is 37.5 µg/mL and 69.1 µg/mL; the TGI is 75 µg/mL and > 150 µg/mL.
As for `O=C(O)CCC(C(=O)O)N1C(=O)C2C3CCC(C3)C2C1=O` (configuration not stated), the TGI in experiment [1] and in experiment [7] was greater than 100 µM in each case.
In the case of `CN1CCN(Cc2ccc(NC(=O)c3cncc(C#Cc4cnc(N)c5cnccc45)c3)cc2C(F)(F)F)CC1`, in experiment [1], the GI50 was 6.02 µM and the TGI is 15.9 µM.
Take `CN(C)CCNC(=O)NC[C@H]1CC[C@@H]2[C@H](O1)c1cc(C(F)(F)F)ccc1N[C@H]2c1ccccc1`: in experiment [1], the GI50 is 5.99 µM and the TGI was greater than 100 µM.
For `CCCCCCCCCCCCCB(O)O`, the TGI in experiment [2], in experiment [8], in experiment [3], in experiment [4], in experiment [5] and in experiment [6] was greater than 100 µM in each case. The GI50 in experiment [6] was > 100 µM and 25.9 µM.
In the case of `CC(=O)O[C@H]1CC2C=CC3C(CCC31)O2` (some centres not stated), the TGI in experiment [2], in experiment [8], in experiment [3], in experiment [4], in experiment [5] and in experiment [6] was greater than 100 µM in each case.
Regarding `CC(C)C1N2CCCCC2[C@@H]2c3[nH]c4ccccc4c3CCN12` (some centres not stated), the TGI in experiment [2], in experiment [8], in experiment [3], in experiment [4], in experiment [5] and in experiment [6] was greater than 100 µM in each case.
Regarding `CC1CC[P+](c2ccccc2)(c2ccccc2)CC1`, the TGI is greater than 100 µM in experiment [2]; 77.4 µM in experiment [8]; greater than 100 µM in experiment [3]; greater than 100 µM in experiment [4]; greater than 100 µM in experiment [5]; greater than 100 µM in experiment [6].
Take `C[CH2][Sn]([CH2]C)([O]C(=O)c1ccc(OC)c(OC)c1OC)[O]C(=O)c1ccc(OC)c(OC)c1OC`: the GI50 in experiment [1] was greater than 100 µM; in experiment [7], greater than 100 µM; in experiment [8], 34.6 µM; in experiment [4] it was 53.2 µM; in experiment [5] it was greater than 100 µM; in experiment [6], 18.7 µM. Also, the TGI was greater than 100 µM in experiment [1]; greater than 100 µM in experiment [7]; greater than 71.5 µM in experiment [8]; greater than 100 µM in experiment [4]; greater than 100 µM in experiment [5]; 32.7 µM in experiment [6].
In the case of `COc1ccc2nc(NC(=O)C(=O)NNC(=O)c3ccncc3)sc2c1`, the TGI in experiment [2], in experiment [8], in experiment [3], in experiment [4] and in experiment [6] was greater than 100 µM each time.
`C#Cc1cccc(NC(=O)c2ccc(NC(=O)CCl)cc2)c1`: in experiment [1], the GI50 is 19.6 µM and the TGI was 67.1 µM.
As to `CCCCCC[C@H](C)NC(=O)c1ccc(Nc2nc3ccccc3c3occc23)cc1`, in experiment [1], the GI50 was 2.48 µM and the TGI came out at 6.99 µM.
Consider `COc1cccc(NC(=O)C(=O)C2C=CCS2(=O)=O)c1` (configuration not stated), for which the TGI in experiment [8], in experiment [3], in experiment [4] and in experiment [6] was greater than 100 µM in each case.
Take `COc1cccc(Nc2nccc(-c3cnn4ncccc34)n2)c1`: in experiment [1], the GI50 was 0.0679 µM.
Take `C=CCc1c(O)c(C(=O)/C=C/c2ccccc2)c(OC)c2ccoc12`: in experiment [1], the GI50 is 1.88 µM and the TGI is 4.91 µM.
For `Fc1ccc(Nc2nc3ccccc3c3occc23)cc1`, in that order: 2.48 µM and 13 µM.
`O=C(O[C@H]1CCN2C[C@H]3C[C@H](CN4C(=O)CCC[C@H]34)[C@@H]2C1)c1ccc(O)cc1` showed a TGI in experiment [7] greater than 100 µM.
As for `COc1cc(/C=C2\C[C@H]3[C@@H]4CC=C5C[C@@H](OC(C)=O)CC[C@]5(C)[C@H]4CC[C@]3(C)[C@H]2OC(C)=O)ccc1OCCN1CCCC1`, in experiment [1], the GI50 was 10.2 µM and the TGI was determined as 20.6 µM.
Compound `O=C1NC(c2cccc(OCc3ccccc3)c2)Nc2ccccc21` (configuration not stated) displayed a TGI in experiment [1] of 0.468 µM.
In the case of `Cc1cc(Cl)cc(Cc2cc(Cl)cc(C)c2O)c1O`, in experiment [1], the GI50 was 2.07 µM and the TGI is 5.95 µM.
On to `CCC[CH2][Pb]([Cl])([CH2]CCC)[CH2]CCC`, for which, in experiment [7], the GI50 was 0.0196 µM and the TGI amounted to 0.0461 µM.
Consider `CN(C)c1ccc(N=C2C=CC(=O)c3ccccc32)cc1`, for which, in experiment [1], the GI50 is 3.95 µM and the TGI was determined as 72.6 µM.
Regarding `Nc1ncnc2c1ccn2[C@@H]1O[C@H]([C@H](O)c2ccc(Cl)c(F)c2)[C@@H](O)[C@H]1O`, in experiment [1], the GI50 was greater than 100 µM and the TGI is greater than 100 µM.

Values taken from PubChem BioAssay (NCI).
